Measured values: patent US11040981B2, “Pyrrolotriazine compounds and methods of inhibiting TAM kinases” (Syros Pharmaceuticals, Inc., priority 2017, dated 2021)

Key:
MERTK = target: T1, MERTK (Homo sapiens, UniProt Q12866); test: TR-FRET kinase activity assay, MERTK; assay type: biochemical; conditions: for IC50: TR-FRET activity assay, ATP at Km, 60 minutes, read-out: Mer IC50; for FLT3/Mer ratio (FLT3 IC50/Mer IC50): ratio of Mer to FLT3: FLT3 IC50/Mer IC50
T1 sequence (Q12866 21-999): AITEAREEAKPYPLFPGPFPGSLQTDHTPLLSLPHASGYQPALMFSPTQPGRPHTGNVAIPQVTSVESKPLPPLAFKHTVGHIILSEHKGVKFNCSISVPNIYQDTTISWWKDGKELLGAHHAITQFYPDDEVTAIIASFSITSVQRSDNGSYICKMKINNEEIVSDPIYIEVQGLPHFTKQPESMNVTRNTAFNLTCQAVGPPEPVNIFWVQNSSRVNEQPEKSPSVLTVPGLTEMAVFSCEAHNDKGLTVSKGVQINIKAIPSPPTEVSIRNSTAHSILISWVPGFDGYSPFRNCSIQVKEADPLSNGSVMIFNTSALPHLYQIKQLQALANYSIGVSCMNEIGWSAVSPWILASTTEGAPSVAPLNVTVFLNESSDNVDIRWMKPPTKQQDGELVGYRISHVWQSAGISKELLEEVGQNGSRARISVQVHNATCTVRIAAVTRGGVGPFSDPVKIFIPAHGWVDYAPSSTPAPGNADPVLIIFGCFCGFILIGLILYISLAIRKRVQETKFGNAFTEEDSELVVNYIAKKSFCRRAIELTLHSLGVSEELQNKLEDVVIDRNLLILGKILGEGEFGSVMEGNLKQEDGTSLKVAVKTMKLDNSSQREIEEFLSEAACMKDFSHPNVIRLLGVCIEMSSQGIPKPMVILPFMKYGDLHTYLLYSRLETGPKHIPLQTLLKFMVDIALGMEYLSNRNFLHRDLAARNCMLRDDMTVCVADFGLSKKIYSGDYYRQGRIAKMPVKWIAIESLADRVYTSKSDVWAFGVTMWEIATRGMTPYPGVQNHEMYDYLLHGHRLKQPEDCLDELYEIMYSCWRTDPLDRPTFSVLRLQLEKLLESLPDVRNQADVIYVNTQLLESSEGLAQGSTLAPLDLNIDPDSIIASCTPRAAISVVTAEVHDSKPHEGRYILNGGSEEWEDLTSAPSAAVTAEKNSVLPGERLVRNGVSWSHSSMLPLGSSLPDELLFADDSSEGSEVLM
Procedure, shortened: (§1)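 Compounds were tested against each kinase with ATP set at its own Km and a labelled tyrosine peptide substrate. Following one hour at room temperature in buffer containing 10 mM MgCl2 and 1 mM DTT, phosphorylated product was detected by Europium antibody TR-FRET after EDTA quench, and IC50 values were calculated.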

AXL = target: T2, AXL (Homo sapiens, UniProt P30530); test: TR-FRET kinase activity assay, AXL; assay type: biochemical; conditions: ATP at Km, 60 minutes
T2 sequence (P30530 26-894): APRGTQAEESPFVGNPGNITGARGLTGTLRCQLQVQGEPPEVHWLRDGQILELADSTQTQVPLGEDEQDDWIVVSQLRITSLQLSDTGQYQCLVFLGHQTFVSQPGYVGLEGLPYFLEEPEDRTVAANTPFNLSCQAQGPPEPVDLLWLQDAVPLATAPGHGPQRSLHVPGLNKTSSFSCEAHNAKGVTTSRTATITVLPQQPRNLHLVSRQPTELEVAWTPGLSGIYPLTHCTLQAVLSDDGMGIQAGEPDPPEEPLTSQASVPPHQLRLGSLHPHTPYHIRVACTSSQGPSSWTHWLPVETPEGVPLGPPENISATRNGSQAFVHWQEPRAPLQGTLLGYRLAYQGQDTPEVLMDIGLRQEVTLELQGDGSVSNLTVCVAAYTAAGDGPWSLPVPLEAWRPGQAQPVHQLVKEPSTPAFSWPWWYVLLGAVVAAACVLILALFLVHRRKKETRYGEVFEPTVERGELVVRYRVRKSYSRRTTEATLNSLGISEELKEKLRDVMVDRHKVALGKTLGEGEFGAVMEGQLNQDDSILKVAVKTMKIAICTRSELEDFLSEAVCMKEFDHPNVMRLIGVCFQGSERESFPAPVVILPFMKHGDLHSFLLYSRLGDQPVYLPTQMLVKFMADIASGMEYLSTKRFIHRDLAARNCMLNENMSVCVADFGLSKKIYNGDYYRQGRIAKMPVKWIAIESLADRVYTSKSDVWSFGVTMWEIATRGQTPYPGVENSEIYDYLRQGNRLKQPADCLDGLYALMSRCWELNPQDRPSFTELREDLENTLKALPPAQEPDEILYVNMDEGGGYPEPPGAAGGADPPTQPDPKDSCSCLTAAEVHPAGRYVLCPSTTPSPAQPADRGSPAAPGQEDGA
Procedure, shortened: as §1

Row | Structure (SMILES) | IC50 (MERTK) [µM] | FLT3/Mer ratio (FLT3 IC50/Mer IC50) (MERTK) | IC50 (AXL) [µM]
1 | COC[C@H](C)Nc1ncc2c(-c3cnn(CC(=O)N(C)C)c3)cc([C@H]3CC[C@H](O)CC3)n2n1 [Compound 238] | ≤ 0.1 | +++ (“+++” represents a ratio of >100) | 0.1 to 1
2 | COC[C@H](C)Nc1ncc2c(-c3cnn(CC(=O)N4CCCC4)c3)cc([C@H]3CC[C@H](O)CC3)n2n1 [Compound 239] | ≤ 0.1 | +++ (“+++” represents a ratio of >100) | ≤ 0.1
3 | COC[C@H](C)Nc1ncc2c(-c3cnn(CC(=O)N4CCN(C)CC4)c3)cc([C@H]3CC[C@H](O)CC3)n2n1 [Compound 240] | ≤ 0.1 | +++ (“+++” represents a ratio of >100) | 0.1 to 1
4 | CNC(=O)Cn1cc(-c2cc([C@H]3CC[C@H](O)CC3)n3nc(N[C@@H](C)COC)ncc23)cn1 [Compound 241] | ≤ 0.1 | +++ (“+++” represents a ratio of >100) | 0.1 to 1
5 | COC[C@H](C)Nc1ncc2c(-c3cnn([C@@H]4CCOC4)c3)cc([C@H]3CC[C@H](O)CC3)n2n1 [Compound 242] | ≤ 0.1 | +++ (“+++” represents a ratio of >100) | ≤ 0.1
6 | COC[C@H](C)Nc1ncc2c(-c3cnn([C@H]4CCOC4)c3)cc([C@H]3CC[C@H](O)CC3)n2n1 [Compound 243] | ≤ 0.1 | +++ (“+++” represents a ratio of >100) | ≤ 0.1
7 | CC(CCF)Nc1ncc2c(-c3ccc(CN4CCOCC4)cc3)cc(C3CCC(O)CC3)n2n1 (stereo not drawn) [Compound 244] | ≤ 0.1 | ++ (“++” represents a ratio of between 10 and 100) | ≤ 0.1
8 | CNC(=O)c1cncc(-c2cc([C@H]3CC[C@H](O)CC3)n3nc(N[C@@H](C)COC)ncc23)c1 [Compound 245] | ≤ 0.1 | +++ (“+++” represents a ratio of >100) | 0.1 to 1
9 | COC[C@H](C)Nc1ncc2c(-c3ccc(C)nc3)cc([C@H]3CC[C@H](O)CC3)n2n1 [Compound 246] | ≤ 0.1 | +++ (“+++” represents a ratio of >100) | ≤ 0.1
10 | COC[C@H](C)Nc1ncc2c(-c3cncc(C(N)=O)c3)cc([C@H]3CC[C@H](O)CC3)n2n1 [Compound 247] | ≤ 0.1 | +++ (“+++” represents a ratio of >100) | 0.1 to 1
11 | COC[C@H](C)Nc1ncc2c(-c3cn(C[Si](C)(C)C)nn3)cc([C@H]3CC[C@H](O)CC3)n2n1 [Compound 248] | ≤ 0.1 | +++ (“+++” represents a ratio of >100) | 0.1 to 1
12 | COC[C@H](C)Nc1ncc2c(-c3ccc4c(c3)NC(=O)C4)cc([C@H]3CC[C@H](O)CC3)n2n1 [Compound 249] | ≤ 0.1 | +++ (“+++” represents a ratio of >100) | ≤ 0.1
13 | COC[C@H](C)Nc1ncc2c(-c3cn(C)nn3)cc([C@H]3CC[C@H](O)CC3)n2n1 [Compound 250, (trans)-4-(2-(((S)-1-methoxypropan-2-yl)amino)-5-(1-methyl-1H-1,2,3-triazol-4-yl)pyrrolo[2,1-f][1,2,4]triazin-7-yl)cyclohexanol] | ≤ 0.1 | +++ (“+++” represents a ratio of >100) | 0.1 to 1
14 | COC[C@H](C)Nc1ncc2c(-c3ccc4c(c3)CC(=O)N4)cc([C@H]3CC[C@H](O)CC3)n2n1 [Compound 251] | ≤ 0.1 | +++ (“+++” represents a ratio of >100) | 0.1 to 1
15 | COC[C@H](C)Nc1ncc2c(-c3ccc4c(c3)CNC4=O)cc([C@H]3CC[C@H](O)CC3)n2n1 [Compound 252] | ≤ 0.1 | +++ (“+++” represents a ratio of >100) | 0.1 to 1
16 | COCC(C)Nc1ncc2c(-c3cccc(C)n3)cc(C3CCC(O)CC3)n2n1 (stereo not drawn) [Compound 253] | ≤ 0.1 | +++ (“+++” represents a ratio of >100) | 1 to 10
17 | COC[C@H](C)Nc1ncc2c(-c3ccc(N4CCOCC4)nc3)cc([C@H]3CC[C@H](O)CC3)n2n1 [Compound 254] | ≤ 0.1 | +++ (“+++” represents a ratio of >100) | 0.1 to 1
18 | CC(CCOC(F)F)Nc1ncc2c(-c3ccc(CN4CCOCC4)cc3)cc(C3CCC(O)CC3)n2n1 (stereo not drawn) [Compound 255] | ≤ 0.1 | ++ (“++” represents a ratio of between 10 and 100) | ≤ 0.1
19 | COC[C@H](C)Nc1ncc2c(-c3ccnc(N4CCN(C)CC4)c3)cc([C@H]3CC[C@H](O)CC3)n2n1 [Compound 256] | ≤ 0.1 | +++ (“+++” represents a ratio of >100) | ≤ 0.1
20 | COC[C@H](C)Nc1ncc2c(-c3cc(C)ccn3)cc([C@H]3CC[C@H](O)CC3)n2n1 [Compound 257] | ≤ 0.1 | +++ (“+++” represents a ratio of >100) | 1 to 10
21 | COC[C@H](C)Nc1ncc2c(-c3ccc(C)cn3)cc([C@H]3CC[C@H](O)CC3)n2n1 [Compound 258] | ≤ 0.1 | ++ (“++” represents a ratio of between 10 and 100) | 0.1 to 1
22 | COC[C@H](C)Nc1ncc2c(-c3ccnc(N4CCOCC4)c3)cc([C@H]3CC[C@H](O)CC3)n2n1 [Compound 259] | ≤ 0.1 | +++ (“+++” represents a ratio of >100) | ≤ 0.1
23 | COC[C@H](C)Nc1ncc2c(-c3cn(C)nc3C)cc([C@H]3CC[C@H](O)CC3)n2n1 [Compound 260] | ≤ 0.1 | +++ (“+++” represents a ratio of >100) | 0.1 to 1
24 | COC[C@H](C)Nc1ncc2c(-c3cnc(C)o3)cc([C@H]3CC[C@H](O)CC3)n2n1 [Compound 261] | ≤ 0.1 | +++ (“+++” represents a ratio of >100) | 0.1 to 1
25 | COCCn1cc(-c2cc([C@H]3CC[C@H](O)CC3)n3nc(N[C@@H](C)CC(F)(F)F)ncc23)cn1 [Compound 262] | ≤ 0.1 | +++ (“+++” represents a ratio of >100) | ≤ 0.1
26 | CNC(=O)c1ccc(-c2cc([C@H]3CC[C@H](O)CC3)n3nc(N[C@@H](C)CC(F)(F)F)ncc23)cn1 [Compound 263] | ≤ 0.1 | ++ (“++” represents a ratio of between 10 and 100) | ≤ 0.1
27 | COC[C@H](C)Nc1ncc2c(-c3cnn(CC(C)(C)O)c3)cc([C@H]3CC[C@H](O)CC3)n2n1 [Compound 264] | ≤ 0.1 | +++ (“+++” represents a ratio of >100) | ≤ 0.1
28 | COC[C@H](C)Nc1ncc2c(-c3cnn(C(C)(C)CO)c3)cc([C@H]3CC[C@H](O)CC3)n2n1 [Compound 265] | ≤ 0.1 | +++ (“+++” represents a ratio of >100) | ≤ 0.1
